The structures appear in SMILES notation.

The term IC50 denotes the concentration at which inhibition is half-maximal.

For one assay, the target named is T1, Wee1 kinase domain (Homo sapiens, UniProt P30291).
T1 construct: Wee1 kinase domain was purchased from Carna (catalog #05-177); purchased Carna 05-177
T1 sequence (P30291 299-569 limits assumed): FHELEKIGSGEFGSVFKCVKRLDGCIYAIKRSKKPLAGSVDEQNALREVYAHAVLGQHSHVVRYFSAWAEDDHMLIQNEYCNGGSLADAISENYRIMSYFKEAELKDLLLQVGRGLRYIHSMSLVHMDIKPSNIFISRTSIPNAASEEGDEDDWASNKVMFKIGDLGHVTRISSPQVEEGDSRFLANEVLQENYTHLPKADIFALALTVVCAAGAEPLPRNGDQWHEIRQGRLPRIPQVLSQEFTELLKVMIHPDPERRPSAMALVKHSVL
The assay can be described thus: Wee1 Kinase Biochemical Assay (ADP-Glo). To be noted: Wee1 kinase domain, 15 uM ATP, ADP-Glo. The method, boiled down: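 The reaction mix held 1 nM Wee1 kinase domain, 15 uM ATP and 2 ng/mL Poly(Lys,Tyr 4:1) substrate and was left for 4 hours at 25 °C. ADP production was then measured with ADP-Glo, and percent inhibition was derived relative to DMSO and a saturating Wee1 inhibitor.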
Background: ADP-Glo first removes unused ATP, then detects ADP through luciferase.
For `CN1CC(c2ccc(Nc3ncc4c(n3)N(c3cccc(N=S(C)(C)=O)n3)[C@H]3CC(C)(C)OC[C@@]43C)cn2)C1` (single isomer, unassigned) [Example 193], the IC50 lay within 100 to 1000 nM.

In turn, `CC1(C)C[C@H]2N(c3cccc(N=S(C)(C)=O)n3)c3nc(Nc4ncccc4F)ncc3[C@@]2(C)CO1` (single isomer, unassigned) [Example 368] yielded an IC50 of 10 to 100 nM.

Take `Cc1cc(Nc2ncc3c(n2)N(c2cccc(N4C(=O)OC[C@@H]4C)n2)[C@H]2CC(C)(C)OC[C@@]32C)ccc1C1CCN(C)CC1` (single isomer, unassigned) [Example 239]: the half-inhibitory concentration (IC50) was less than 10 nM.

Consider `Cc1cc(Nc2ncc3c(n2)N(c2cccc(N=S(C)(C)=O)n2)[C@H]2CC(C)(C)OC[C@@]32C)ccc1[C@H]1COCCN1` (single isomer, unassigned) [Example 115], for which the IC50 lay within 10 to 100 nM.

`C[C@H]1COC(=O)N1c1cccc(N2c3nc(Nc4ccc(O[C@@H]5CCNC5)nc4)ncc3[C@]3(C)COC(C)(C)C[C@H]23)n1` (single isomer, unassigned) [Example 286] had an IC50 of 100 to 1000 nM.

Consider `CNCc1cccc(N2c3nc(Nc4ccc([C@H]5CCCO5)cc4)ncc3[C@@]3(C)COC(C)(C)C[C@@H]23)n1` (single isomer, unassigned) [Example 60], for which the IC50 was less than 10 nM.

The assay is the same for the next values; noted with them: class symbols; 1 nM Wee1 enzyme, 15 uM ATP, 4 hours at 25° C.
Take `CN1CCC(c2cccc(N3c4nc(Nc5ccc(N6CCOCC6)cc5)ncc4[C@]4(C)COC(C)(C)C[C@H]34)n2)CC1` (single isomer, unassigned) [Example 534]: the IC50 is 100 to 1000 nM.

With `CN1CCC(c2ccc(Nc3ncc4c(n3)N(c3cccc(N=S(C)(C)=O)c3)[C@H]3CC(C)(C)OC[C@@]43C)cn2)CC1` [Example 709, dimethyl((3-((4bS,8aS)-4b,7,7-trimethyl-2-((6-(1-methylpiperidin-4-yl)pyridin-3-yl)amino)-4b,7,8,8a-tetrahydropyrano[3′,4′:4,5]pyrrolo[2,3-d]pyrimidin-9(5H)-yl)phenyl)imino)-16-sulfanone], the 50% inhibitory concentration (IC50) is not below 1000 nM.

Take `C[C@H]1COC(=O)N1c1cccc(N2c3nc(Nc4ccc([C@@H]5CCN(C)C5)cc4)ncc3[C@@]3(C)COCC[C@@H]23)n1` [Example 794, (S)-4-methyl-3-(6-((4bR,8aR)-4b-methyl-2-((4-((S)-1-methylpyrrolidin-3-yl)phenyl)amino)-4b,7,8,8a-tetrahydropyrano[3′,4′:4,5]pyrrolo[2,3-d]pyrimidin-9(5H)-yl)pyridin-2-yl)oxazolidin-2-one]: the IC50 was less than 10 nM.

As to `CC1(C)C[C@H]2N(c3cccc(N=S(C)(C)=O)n3)c3nc(NC(=O)C4(F)CC4)ncc3[C@@]2(C)CO1` (single isomer, unassigned) [Example 410], the IC50 was 10 to 100 nM.

Take `CC[C@@]1(O)CCc2ccc(N3c4nc(Nc5ccc(N6C[C@@H]7C[C@H]6CN7C)cc5)ncc4[C@@]4(C)COC(C)(C)C[C@@H]34)nc21` [Example 792, (R)-7-ethyl-2-((4bR,8aR)-4b,7,7-trimethyl-2-((4-((1S,4S)-5-methyl-2,5-diazabicyclo[2.2.1]heptan-2-yl)phenyl)amino)-4b,7,8,8a-tetrahydropyrano[3′,4′:4,5]pyrrolo[2,3-d]pyrimidin-9(5H)-yl)-6,7-dihydro-5H-cyclopenta[b]pyridin-7-ol]: the IC50 is less than 10 nM.

Molecule `CCn1cc(Nc2ncc3c(n2)N(c2cccc(N=S(C)(C)=O)n2)[C@@H]2CC(C)(C)OC[C@]32C)nn1` (single isomer, unassigned) [Example 516] came in with an IC50 of less than 10 nM.

`Cc1cc(Nc2ncc3c(n2)N(c2cccc([C@H]4CCCN4)n2)[C@H]2CC(C)(C)OC[C@@]32C)ccc1N1CCOCC1` (single isomer, unassigned) [Example 521] gave an IC50 of 100 to 1000 nM.

In turn, `CC1(C)C[C@@H]2N(c3cccc(C4(F)CNC4)n3)c3nc(Nc4ccc(N5CCOCC5)cc4)ncc3[C@]2(C)CO1` (single isomer, unassigned) [Example 546] registered a half-maximal inhibitory concentration (IC50) of 100 to 1000 nM.

The values are drawn from US20260166039A1 (SCHRÖDINGER, INC., priority 2022, published 2026).
